According to US6214821A, “Methods and composition for the inhibition of cancer cells” (Washington State University Research Foundation, priority 1999, dated 2001):
Like-named read-outs stand apart in the source and are kept apart here.

What was measured:
GI 101A cells = assay: cells; type: cell-based, human
From the text: (§1) . Cell lines and Culture.
(§2) Drugs and Chemical Reagents. […] . […] All other chemicals were reagent grade.
(§3) Drug Treatment and Survival Curves.
(§4) Pharmacol. 28:370-376 (1991). […] .
(§5) Drug Combinations and Data Analysis. […] . Pharmacol. (in press, 1997). […] Enzyme Regul. […] Enzyme Regul. 22:27-55 (1984).
(§6) . […] Enzyme Regul. 22:27-55 (1984).

MDA-231 cells = assay: cells; type: cell-based, human
From the text: as §1, §2, §3, §4, §5, §6

HMEC/E6 (p53-) = assay: Crystal violet staining growth inhibition assay, median effect analysis; type: cell-based; settings: Homo sapiens, 24 hr treatment
From the text: Cytotoxicity and Bromodeoxyuridine incorporation assays. […] Enzyme Regul.

[1] = UCN-01 pharmacokinetics in rats, effect of human AGP; type: in vivo, male Wistar rats; settings: for half-life / clearance / Vd: 10 mg/kg; for half-life: range over the two groups (without and with 10 mg human AGP); for clearance: read-out: total body clearance (converted); for Vd: read-out: volume of distribution during the elimination phase
From the text: Many basic drugs tend to bind in variable degrees to AGP (Knowlton, K. et al., "Bcl-2 slows in vitro breast cancer growth despite its antiapoptotic effect," J. Surg. Res. 76:22-26 (1998)). […] Thus monitoring changes in the pharmacokinetic drug concentrations in these pathological conditions is extremely important, since dosage adjustment would be considered. For our drug combination, this binding is of a crucial consequence since the attainable plasma and tumor concentrations may be questionable and plasma protein displacement interaction may occur and can lead to undesirable side effects. Thus the role of human α1 -acid glycoprotein (AGP) binding on UCN-01 disposition was determined. In this example, two groups of rats were prepared by cannulating the femoral vein and artery. The first group (n=6) received UCN-01 (10 mg/kg i.v.) by slow infusion over 1 min., while the second group (n=5) received UCN-01+10 mg human α1 -acid glycoprotein. Plasma samples were obtained over time (0-700 min), and were analyzed for UCN-01 by HPLC system (Shimazdu LC), detecting peaks using fluorescence detector (excitation=310 nm, emission=410).

[2] = Tissue distribution of UCN-01 in rats, effect of human AGP; type: in vivo, male Wistar rats; settings: rat, iv, 10 mg/kg
Experimental: The role of human AGP binding on the tissue distribution of UCN-01. In this study, two groups of rats (n=3) were infused with bolus injection of either UCN-01 (10 mg/kg) or UCN-01+ human AGP (10 mg/kg +10 mg). On hour following drug administration, plasma samples as well as organ tissues (brain, muscle, kidneys, lungs, liver, heart and spleen) were collected. Tissues were digested and homogenized, protein was precipitated with cold ethanol/1% ascorbic acid, and the supernatant was extracted with chloroform. The organic phase was then dried under nitrogen, reconstituted in acetonitrile and analyzed by HPLC as mentioned above.

[3] = tested on: normal bovine venular endothelial cells (BVEC)
Experimental: Cell lines and Culture. […] Normal bovine venular endothelial cells (BVEC) were maintained in DMEM media (Gibco) supplemented with 1 mM sodium pyrovate (Gibco), and 20% bovine calf serum (Hyclone). Cell viability was determined using the trypan blue exclusion test. To ensure an exponential growth, cells were plated in fresh medium 24 h before each treatment.
Drug Treatment and Survival Curves. Cytotoxicity studies were initiated by plating 2×10^4 cells obtained from exponentially growing cultures in 24-well tissue culture plates (Coming-Costar, Cambridge Mass.) in the appropriate medium. Following 24 h incubation at 37° C., drugs were added to quadruplicate wells and incubated for 24 h, the wells were washed twice with prewarmed phosphate-buffered saline (PBS) and then incubated with drug-free medium for 2-3 doubling times.

[4] = 72- or 3-h infusion, NCI Phase I; cited from earlier work
[5] = tested on: α1 -acid glycoprotein (AGP); settings: cited from earlier work
[6] = Death of animals injected with UCN-01; settings: i.m., doses higher than 5 mg/kg
HMEC (p53+) = assay: Crystal violet staining growth inhibition assay, median effect analysis; settings: Homo sapiens, 24 h, read-out: IC50 HMEC (p53+)
MDA-231 (mutant p53) = assay: as above; settings: Homo sapiens, MDA-MB-231, 24 h, read-out: IC50 MDA-231 (p53-)
[7] = rat, plasma, iv, UCN-01 10 mg/kg i.v. + 10 mg human AGP
[8] = rat, plasma, iv, UCN-01 10 mg/kg i.v. alone

**Q.** Which “enhancement of CPT cytotoxicity” value (GI 101A cells) does the source give for `CN[C@@H]1C[C@H]2O[C@@](C)([C@@H]1OC)n1c3ccccc3c3c4c(c5c6ccccc6n2c5c31)C(=O)N[C@@H]4O` [UCN-01, 7-hydroxystaurosporine] here?
**A.** Its value is “about 30 fold”.

**Q.** What about the “enhancement of CPT cytotoxicity” value (MDA-231 cells) of the same compound?
**A.** Its value is about 40 fold.

**Q.** What about the IC50 (HMEC/E6 (p53-)) of the same compound?
**A.** Its IC50 is 1.4 nM.

**Q.** What about the “duration of peak plasma concentration >100 nM” value ([1]; 10 mg/kg i.v., presence of human AGP) of the same compound?
**A.** The value was “up to 300 min”.

**Q.** And the half-life ([1]; rat, plasma, iv, 10 mg/kg i.v., read-out: t1/2α)?
**A.** Its half-life is 0.183 to 0.85 h.

**Q.** And the half-life ([1]; rat, plasma, iv, 10 mg/kg i.v., read-out: t1/2β)?
**A.** The half-life was 6.65 to 6.95 h.

**Q.** And the clearance [1, 7]?
**A.** Its clearance is 1.5 mL/min.

**Q.** And the Vd [1, 7]?
**A.** The Vd was 1.7 L/kg.

**Q.** What about the clearance [1, 8] of the same compound?
**A.** The clearance was 4.33 mL/min.

**Q.** And the Vd [1, 8]?
**A.** Its Vd is 6.8 L/kg.

**Q.** And the Cmax ([1]; rat, plasma, iv, 10 mg/kg i.v., presence of human AGP, read-out: peak plasma concentration)?
**A.** The Cmax was over 100 nM.

**Q.** And the Kp at 1 h ([2]; all tissues, UCN-01, 1 h, read-out: tissue:plasma ratios, all tissues)?
**A.** Its Kp at 1 h is 10 to 1190.

**Q.** What about the concentration at 1 h ([2]; brain, brain, UCN-01 10 mg/kg alone, 1 h, read-out: tissue concentration) of the same compound?
**A.** Its concentration at 1 h is 2450 ± 495 ng/g.

**Q.** What about the Kp at 1 h ([2]; brain, brain, UCN-01 + human AGP, 1 h, read-out: Tissue/Plasma ratio) of the same compound?
**A.** Its Kp at 1 h is 0.6 ± 0.33.

**Q.** And the concentration at 1 h ([2]; brain, brain, UCN-01 + human AGP, 1 h, read-out: tissue concentration)?
**A.** The concentration at 1 h was 1720 ± 78.4 ng/g.

**Q.** What about the Kp at 1 h ([2]; brain, brain, UCN-01 alone, 1 h, read-out: Tissue/Plasma ratio) of the same compound?
**A.** The Kp at 1 h was 10.5 ± 1.9.

**Q.** And the concentration at 1 h ([2]; heart, heart, UCN-01 10 mg/kg alone, 1 h, read-out: tissue concentration)?
**A.** The concentration at 1 h was 19900 ± 9940 ng/g.

**Q.** What about the Kp at 1 h ([2]; heart, heart, UCN-01 + human AGP, 1 h, read-out: Tissue/Plasma ratio) of the same compound?
**A.** Its Kp at 1 h is 3.5 ± 1.7.

**Q.** And the concentration at 1 h ([2]; heart, heart, UCN-01 + human AGP, 1 h, read-out: tissue concentration)?
**A.** The concentration at 1 h was 10100 ± 4900 ng/g.

**Q.** And the Kp at 1 h ([2]; heart, heart, UCN-01 alone, 1 h, read-out: Tissue/Plasma ratio)?
**A.** The Kp at 1 h was 86.8 ± 41.7.

**Q.** What about the concentration at 1 h ([2]; kidney, kidney, UCN-01 10 mg/kg alone, 1 h, read-out: tissue concentration) of the same compound?
**A.** Its concentration at 1 h is 73200 ± 3050 ng/g.

**Q.** And the Kp at 1 h ([2]; kidney, kidney, UCN-01 + human AGP, 1 h, read-out: Tissue/Plasma ratio)?
**A.** Its Kp at 1 h is 14 ± 5.6.

**Q.** What about the concentration at 1 h ([2]; kidney, kidney, UCN-01 + human AGP, 1 h, read-out: tissue concentration) of the same compound?
**A.** The concentration at 1 h was 39400 ± 8510 ng/g.

**Q.** What about the Kp at 1 h ([2]; kidney, kidney, UCN-01 alone, 1 h, read-out: Tissue/Plasma ratio) of the same compound?
**A.** The Kp at 1 h was 298 ± 40.

**Q.** And the concentration at 1 h ([2]; liver, liver, UCN-01 10 mg/kg alone, 1 h, read-out: tissue concentration)?
**A.** Its concentration at 1 h is 42900 ± 3210 ng/g.

**Q.** And the Kp at 1 h ([2]; liver, liver, UCN-01 + human AGP, 1 h, read-out: Tissue/Plasma ratio)?
**A.** The Kp at 1 h was 11.3 ± 1.34.

**Q.** And the concentration at 1 h ([2]; liver, liver, UCN-01 + human AGP, 1 h, read-out: tissue concentration)?
**A.** Its concentration at 1 h is 30100 ± 2530 ng/g.

**Q.** What about the Kp at 1 h ([2]; liver, liver, UCN-01 alone, 1 h, read-out: Tissue/Plasma ratio) of the same compound?
**A.** The Kp at 1 h was 189 ± 131.

**Q.** And the concentration at 1 h ([2]; lung, lung, UCN-01 10 mg/kg alone, 1 h, read-out: tissue concentration)?
**A.** Its concentration at 1 h is 279000 ± 19600 ng/g.

**Q.** And the Kp at 1 h ([2]; lung, lung, UCN-01 + human AGP, 1 h, read-out: Tissue/Plasma ratio)?
**A.** The Kp at 1 h was 53.6.

**Q.** And the concentration at 1 h ([2]; lung, lung, UCN-01 + human AGP, 1 h, read-out: tissue concentration)?
**A.** The concentration at 1 h was 141000 ± 12000 ng/g.

**Q.** And the Kp at 1 h ([2]; lung, lung, UCN-01 alone, 1 h, read-out: Tissue/Plasma ratio)?
**A.** The Kp at 1 h was 1190 ± 775.

**Q.** What about the concentration at 1 h ([2]; muscle, muscle, UCN-01 10 mg/kg alone, 1 h, read-out: tissue concentration) of the same compound?
**A.** The concentration at 1 h was 11900 ± 783 ng/g.

**Q.** And the Kp at 1 h ([2]; muscle, muscle, UCN-01 + human AGP, 1 h, read-out: Tissue/Plasma ratio)?
**A.** Its Kp at 1 h is 2.27 ± 1.11.

**Q.** And the concentration at 1 h ([2]; muscle, muscle, UCN-01 + human AGP, 1 h, read-out: tissue concentration)?
**A.** Its concentration at 1 h is 6590 ± 3060 ng/g.

**Q.** What about the Kp at 1 h ([2]; muscle, muscle, UCN-01 alone, 1 h, read-out: Tissue/Plasma ratio) of the same compound?
**A.** Its Kp at 1 h is 60 ± 5.48.

**Q.** What about the concentration at 1 h ([2]; plasma, plasma, UCN-01 10 mg/kg + human AGP 10 mg, 1 h, mean ± SD, n=3, read-out: plasma concentration) of the same compound?
**A.** Its concentration at 1 h is 2960 ± 250 ng/mL.

**Q.** And the concentration at 1 h ([2]; plasma, plasma, UCN-01 10 mg/kg alone, 1 h, mean ± SD, n=3, read-out: plasma concentration)?
**A.** Its concentration at 1 h is 240 ± 35 ng/mL.

**Q.** What about the concentration at 1 h ([2]; spleen, spleen, UCN-01 10 mg/kg alone, 1 h, read-out: tissue concentration) of the same compound?
**A.** The concentration at 1 h was 74900 ± 5170 ng/g.

**Q.** And the Kp at 1 h ([2]; spleen, spleen, UCN-01 + human AGP, 1 h, read-out: Tissue/Plasma ratio)?
**A.** Its Kp at 1 h is 19.6 ± 14.7.

**Q.** And the concentration at 1 h ([2]; spleen, spleen, UCN-01 + human AGP, 1 h, read-out: tissue concentration)?
**A.** Its concentration at 1 h is 53300 ± 3120 ng/g.

**Q.** What about the Kp at 1 h ([2]; spleen, spleen, UCN-01 alone, 1 h, read-out: Tissue/Plasma ratio) of the same compound?
**A.** The Kp at 1 h was 326 ± 208.

**Q.** And the “enhancement of CPT-induced cytotoxicity” value [3]?
**A.** The value was “no enhancement of CPT-induced cytotoxicity”.

**Q.** And the distribution volume [4]?
**A.** Its distribution volume is “small distribution volume”.

**Q.** What about the half-life [4] of the same compound?
**A.** Its half-life is “long half-life”.

**Q.** And the plasma concentrations [4]?
**A.** The plasma concentrations was “high plasma concentrations”.

**Q.** And the systemic clearance [4]?
**A.** Its systemic clearance is “Extremely low systemic clearance”.

**Q.** What about the “binding to α1-acid glycoprotein” value [5] of the same compound?
**A.** Its value is “high affinity binding”.

**Q.** And the death of animals [6]?
**A.** The death of animals was “Death of animals injected with doses higher than 5 mg/kg was observed”.

**Q.** What about the IC50 (HMEC (p53+)) of the same compound?
**A.** Its IC50 is 0.07 nM.

**Q.** And the IC50 (MDA-231 (mutant p53))?
**A.** Its IC50 is 49.6 nM.
